Source: patent US12697316B2, “Combination therapy with acetyl-leucine and miglustat” (INTRABIO LTD., priority 2019, dated 2026)

Tests used:
Npc1^−/− mice = experiment: CatWalk automated gait analysis in Npc1−/− mice; type: in vivo, mouse; details: for ataxia (lateral displacement from a straight trajectory): 9-week-old Npc1−/− mice treated from 8 weeks of age (1 week), 0.1 g/kg/day in diet; for ataxia (lateral displacement from a straight trajectory) / duty cycle of hind paws / hind paw stand mean: vs untreated Npc1−/−; for magnitude of ataxia: Npc1−/− mice treated from weaning (3 weeks), assessed at 9 weeks (6 weeks of treatment)
Method: BALBc/NPC ^h and Sandhoff mice were bred as heterozygotes to generate affected mice (Npc1^−/−, Hexb^−/−) and controls (Npc^+/+, Hexb^+/+). The mice were housed under non-sterile conditions, with food and water available ad libitum. All experiments were conducted using protocols approved by the UK Home Office Animal Scientific Procedures Act, 1986.
(§1) ADLL and enantiomers (ADLL: Molekula #73891210, ALL: Sigma Aldrich #441511, ADL: Sigma #A0876) were administered as dry admix in powdered mouse diet (PicoLab Rodent Diet 20/5053, LabDiet) at a dose of 0.1 g/kg/day for in vivo studies. Treatment groups for in vivo study consisted of at least 5 mice per group. In vitro studies were conducted with each compound dissolved in PBS to generate a 50 mM stock solution and diluted to a 1 mM working concentration in media (DMEM High Glucose-Gibco #10566016).
Miglustat (Monsanto/Oxford GlycoSciences) was administered as a dry solid mixed with powdered chow (600 mg/kg/day) (see above) alone or in combination with ADLL.
The weight and activity of each mouse was recorded weekly until reaching the humane endpoint (defined as a loss of 1 g body weight within 24 h). Gait analysis was performed using CatWalk 10.5 system (Noldus) according to the manufacturer's instructions and five runs were recorded per animal at each time point. The camera was set to 40 cm below the walkway, the walkway was approximately 4 cm wide, and detection settings set to camera gain 14.05 and green intensity 0.12. Motor function was measured using an accelerating NG Rota Rod for mice (Ugo Basile) starting from 1 rpm to 10 rpm, accelerating every 30 seconds by one rpm. Bar crossing experiments on Sandhoff animals were conducted to measure motor strength and coordination. The apparatus used was modified from published studies. Briefly, a metal bar (1.2 mm width and 26 cm in length) was suspended horizontally between two wooden supports 30 cm high over a cushioned surface and animals were allowed to grasp the center of the bar with forepaws only, the tail was released, and the clock was started. Latency to cross or fall from the bar was scored, with 120 sec, maximum, to termination of each trial. A score was given to each animal between +120 and −120. If crossing time was greater than 0, then score=120−CT; if falling time was greater than 0, the score=FT−120.

[1] = test system: Npc1^−/− Chinese Hamster Ovary (CHO) cells; experiment: Sphingosine, total GSL and cholesterol content in NPC1 null CHO cells; type: cell-based; details: 1 mM, 72 hours
Method: (§2) Wild type and NPC1 null Chinese Hamster Ovary (CHO) cells were kindly provided by Chris Wassif (NIH).
as §1
Sphingoid Base Measurements: Sphingoid bases (sphingosine and sphinganine) were extracted from 100 uL tissue homogenates in 500 uL of chloroform:methanol (1:2v/v) followed by sonication for 10 minutes at room temperature. Subsequently, 1 M 500-uL sodium chloride, 500 uL chloroform, and 3 M 100 uL sodium hydroxide were added to the samples, and vortexed every five minutes for 15 minutes at room temperature. Homogenates were centrifuged (13,000 g for 10 minutes) and the lower organic phase retained. Sphingoid bases were purified from the samples by pre-equilibrating SPA-NH2 columns with 2×1 mL chloroform followed by sample elution with 3×300 ul acetone. The samples were dried under nitrogen. Lipids were resuspended in 50 uL pre-warmed ethanol (37° C.) and 50 uL OPA labelling solution (1 mg OPA/20 uL Ethanol/1 uL 2-mercaptoethanol; dilution 1:2000 in 3% boric acid pH 10.5) was added. Samples were kept at room temperature in the dark for 20 minutes and vortexed every 10 minutes. Samples were buffered with 100 uL methanol: 5 mM Tris pH 7 (9:1) and centrifuged at 5,000 g for 2 minutes. Supernatants (150 uL) were loaded onto a reverse phase HPLC. Chromatography was carried out using a mobile phase of 85% acetonitrile/15% H2O at a flow rate of 1.0 ml/min. The orthophthaldehyde-labelled derivatives were monitored at an excitation wavelength of 340 nm and an emission wavelength of 450 nm. Quantification of trace peak area was carried out using EZChrom Elite software v3.2.1.
Glycosphingolipid measurements: Glycosphingolipids were extracted and measured by NP-HPLC according to published methods. Tissue homogenates in chloroform/methanol (C:M) (1:2 v/v) overnight at 4° C. The mixture was centrifuged (3000 rpm/10 min) and 1 mL chloroform and 1 mL PBS were added to the supernatant and centrifuged (3000 rpm/10 min). The lower phase was dried under N2, resuspended in 50 uL C:M 1:3 v/v and combined with the upper phase. Subsequently, GSLs were recovered using C18 Isolute columns (100 mg) (Biotage) pre-equilibrated with 4×1 mL MeOH and 2×1 mL H2O. Samples were washed 3×1 mL H2O and eluted with 1 mL C:M 98:2, 2×1 mL C:M 1:3, 1 mL MeOH. The column eluate was dried under N2, resuspended in 100 uL C:M 2:1, dried again under N2 and resuspended in ceramide glycanase (CGase) buffer (50 mM sodium acetate pH 5.5, 1 mg/mL sodium taurodeoxycholate). 50 mU CGase was added, and samples incubated at 37° C. overnight. Released oligosaccharides were anthranilic acid (2-AA) labelled and purified by mixing with 1 mL Acetonitrile: H2O 97:3 and added to Discovery DPA-6S columns (SUPELCO, # 52625-U) pre-equilibrated with 1 mL acetonitrile, 2×1 mL H2O, and 2×1 mL acetonitrile. Columns were washed with 2×1 mL Acetonitrile: H2O 95:5 v/v, and eluted in 2×0.75 mL H2O. Samples were loaded 30:70 H2O: MeCN (v/v) for normal phase HPLC. Solvent A was acetonitrile, solvent B was H2O, and solvent C was 100 mM […] (pH 3.85) in H2O. Separation was carried out at 30° C. using Waters Alliance 2695 separation module, excitation 360, emission 425 using Waters 2475 Fluorescence detector.
Cholesterol measurements: Cholesterol was measured with the Amplex Red kit (Molecular Probes) according to the manufacturer's instructions. Briefly, cell and tissue homogenates in 100 uL mQ water were Folch extracted and dried down under nitrogen. […]

[2] = test system: Npc1^−/− Chinese Hamster Ovary (CHO) cells; experiment: Lysotracker Green relative lysosomal volume (FACS) in NPC1 null CHO cells; type: cell-based; details: 1 mM
Method: as §2, §1
Lysotracker Green and Propidium Iodide Staining of CHO cells: In vitro FACS experiments were performed in order to measure relative acidic compartment volume staining live cells with LysoTracker™ Green DND-26 (Thermo Fisher-L7526) at 250 nM for 10 minutes in PBS at RT, centrifuged at 1200 rpm for 10 min and cells resuspended in FACS buffer (PBS, 1% BSA, 0.1% NaN3 sodium azide). Cells were stained with propidium iodide (20 nM) (Invitrogen-P3566) immediately prior to analysis on the FACS for dead cell discrimination. FACS analysis was performed on 10,000 recorded cells using FACS Canto (Becton Dickinson, (BD)) with BD software.

[3] = Npc1−/− mice treated from 3 weeks, assessed at 8 weeks

Structure (SMILES)	ataxia (lateral displacement from a straight trajectory) (Npc1^−/− mice)	motor function assessed using Catwalk (Npc1^−/− mice; [3])	magnitude of ataxia (Npc1^−/− mice)	reduction of cholesterol content [1] [%]	reduction of sphingosine levels [1] [%]	reduction of total GSL levels [1] [%]	reduction of relative lysosomal volume ([2]; 72 h) [%]	duty cycle of hind paws (Npc1^−/− mice; [3])	hind paw stand mean (Npc1^−/− mice; [3])	reduction of relative lysosomal volume ([2]; 24 h) [%]
CC(=O)N[C@H](CC(C)C)C(=O)O [ADL, N-acetyl-D-leucine]	significantly reduced ataxia	no significant benefit	significantly reduced	14	14	22	22.3	–	–	–
CC(=O)NC(CC(C)C)C(=O)O (racemic) [ADLL, N-acetyl-DL-leucine]	significantly reduced ataxia	–	significantly reduced	18	22	26	24	significantly reduced	significantly reduced	16.9
CC(=O)N[C@@H](CC(C)C)C(=O)O [ALL, N-acetyl-L-leucine]	significantly reduced ataxia	–	significantly reduced	13	29	25	22.8	significantly reduced	significantly reduced	16
